Experimental findings from patent EP1120414A1, “DISUBSTITUTED MALEIMIDE COMPOUNDS AND MEDICINAL UTILIZATION THEREOF” (Japan Tobacco Inc., priority 1998, dated 2000) are described below.

SMILES strings stand for the structures. Read-outs that look alike come from different tables or passages of the source.

One assay deals with T1, PKC α (Homo sapiens, UniProt P17252).
T1 construct: purchased CALBIOCHEM
The assay is described as follows: PKC enzyme assay (BIOTRAK Protein kinase C enzyme assay system, 32P-ATP phosphorylation of peptide […]). It counts as biochemical. In outline: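 Recombinant human PKC (400 ng/ml solution) phosphorylated the supplied peptide with [γ-32P]ATP in calcium, phosphatidylserine/PMA, DTT and Mg-ATP buffer, 15 min at 37°C. Compounds were tested at 1 nM-10 µM final. Phosphocellulose-bound radioactivity relative to DMSO gave inhibition, from which IC50 was calculated.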

Another assay addresses T2, PKC β II (Homo sapiens, UniProt P05771).
T2 construct: purchased CALBIOCHEM
The description is as above. It counts as biochemical. Conditions: for Ratio α/β: IC50 PKC α / IC50 PKC β II.

Where [1] appears, read: read-out: Inhibition of PKC activity IC50 PKC α, Protein Kinase C, Human Recombinant, test substance 1 nM-10 µM, 37°C, 15 minutes.
Where [2] appears, read: read-out: Inhibition of PKC activity IC50 PKC β II, Protein Kinase C, Human Recombinant, test substance 1 nM-10 µM, 37°C, 15 minutes.
The mark [3] stands for this setting: Protein Kinase C, Human Recombinant, test substance 1 nM-10 µM, 37°C, 15 minutes, read-out: Inhibition of PKC activity IC50 PKC β II.

Usually IC50 stands for the point on the concentration scale where inhibition reaches its midpoint.

T2 sequence (P05771 other isoform, or with tags, fused parts or gaps): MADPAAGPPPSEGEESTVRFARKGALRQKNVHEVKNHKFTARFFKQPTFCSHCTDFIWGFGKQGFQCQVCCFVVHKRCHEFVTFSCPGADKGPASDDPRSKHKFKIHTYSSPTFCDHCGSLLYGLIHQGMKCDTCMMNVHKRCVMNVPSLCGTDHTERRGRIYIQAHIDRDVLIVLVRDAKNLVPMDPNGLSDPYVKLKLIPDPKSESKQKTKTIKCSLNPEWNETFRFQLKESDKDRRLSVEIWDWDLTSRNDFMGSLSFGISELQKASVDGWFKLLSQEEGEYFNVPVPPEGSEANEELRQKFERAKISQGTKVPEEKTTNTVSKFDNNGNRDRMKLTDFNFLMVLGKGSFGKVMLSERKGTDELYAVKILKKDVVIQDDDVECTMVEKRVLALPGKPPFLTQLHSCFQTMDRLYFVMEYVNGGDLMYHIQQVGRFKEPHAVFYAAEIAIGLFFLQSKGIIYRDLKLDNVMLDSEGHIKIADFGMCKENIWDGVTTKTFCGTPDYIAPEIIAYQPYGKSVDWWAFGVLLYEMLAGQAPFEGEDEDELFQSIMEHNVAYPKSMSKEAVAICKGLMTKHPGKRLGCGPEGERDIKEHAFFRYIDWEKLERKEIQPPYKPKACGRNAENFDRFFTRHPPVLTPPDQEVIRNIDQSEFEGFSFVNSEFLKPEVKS

Consider `O=C1NC(=O)C(c2c3n(c4ccccc24)CC(CN2CCC(O)CC2)C3)=C1Nc1ccccc1` (stereo not drawn) [Example 4-27], for which the IC50 came to 831 nM at PKC α (setting [1]) and 13 nM on PKC β II (setting [2]). Further, the “Ratio α/β” value on PKC β II is listed as 64.
Taken in the same sequence, the figures for `O=C1NC(=O)C(c2c3n(c4ccccc24)CC(CN2CCSCC2)C3)=C1Nc1ccccc1` (stereo not drawn) [Example 4-28] were 3360 nM, 25 nM and 134.
In the same order, the values of `O=C1NC(=O)C(c2c3n(c4ccccc24)CC[C@H](CN2CCSCC2)C3)=C1Nc1ccccc1` [Example 4-30] are 654 nM, 5 nM and 131.
Taken in the same sequence, the figures for `CCNCC1Cc2c(C3=C(Nc4ccccc4)C(=O)NC3=O)c3ccccc3n2C1` (stereo not drawn) [Example 4-31] were 186 nM, 3 nM and 64.
As for `CNCC1Cc2c(C3=C(Nc4ccc(F)cc4)C(=O)NC3=O)c3ccccc3n2C1` (stereo not drawn) [Example 4-32], the IC50 turned out to be 228 nM at PKC α (setting [1]) and 4 nM on PKC β II (setting [2]). For the same molecule, the “Ratio α/β” value at PKC β II turned out to be 60.
In the same order, the values of `CCNCC1Cc2c(C3=C(Nc4ccc(F)cc4)C(=O)NC3=O)c3ccccc3n2C1` (stereo not drawn) [Example 4-33] are 321 nM, 4 nM and 75.
Taken in the same sequence, the figures for `O=C1NC(=O)C(c2c3n(c4ccccc24)CC(Cn2ccnc2)C3)=C1Nc1ccccc1` (stereo not drawn) [Example 4-37] were 592 nM, 7 nM and 85.
For `O=C1NC(=O)C(c2c3n(c4ccccc24)CCCC(Cn2ccnc2)C3)=C1Nc1ccccc1` (stereo not drawn) [Example 4-38], the IC50 on PKC α (setting [1]) is more than 10000 nM; on PKC β II (setting [2]), 41 nM. Moreover, the “Ratio α/β” value on PKC β II is listed as 244.
The molecule `CCN(C)C[C@@H]1CCc2c(C3=C(Nc4ccccc4)C(=O)NC3=O)c3ccccc3n2C1` [Example 4-40] came in with an IC50 on PKC α of 557 nM. Moreover, on PKC β II, half-maximal inhibition (IC50) was put at 6 nM and the “Ratio α/β” value is recorded as 93.
For the molecule `CN(C)C[C@@H]1CCc2c(C3=C(Nc4ccccc4)C(=O)NC3=O)c3ccccc3n2C1` [Example 4-41], the IC50 at PKC α (setting [1]) stood at 445 nM; at PKC β II (setting [3]) it was 6 nM. For the same molecule, the “Ratio α/β” value at PKC β II is on record as 74.
Regarding `O=C1NC(=O)C(c2c3n(c4ccccc24)C[C@H](CN2CCOCC2)CC3)=C1Nc1ccccc1` [Example 4-42], the IC50 on PKC α (setting [1]) was 2660 nM; at PKC β II (setting [2]), 22 nM. Further, the “Ratio α/β” value on PKC β II is 121.
Taken in the same sequence, the figures for `O=C1NC(=O)C(c2c3n(c4ccccc24)C[C@H](CO)C=C3)=C1Nc1ccccc1` [Example 4-43] were 749 nM, 7 nM and 107.
In the same order, the values of `NC(=O)c1cccc(NC2=C(c3c4n(c5ccccc35)C[C@H](CO)CC4)C(=O)NC2=O)c1` [Example 4-46] are more than 10000 nM, 89 nM and 112.
In the same order, the values of `CCN(C)C[C@@H]1CCc2c(C3=C(Nc4cccc(SC)c4)C(=O)NC3=O)c3ccccc3n2C1` [Example 4-48] are 2530 nM, 34 nM and 74.
As for `CCN(C)C[C@@H]1CCc2c(C3=C(Nc4ccc5c(c4)OCO5)C(=O)NC3=O)c3ccccc3n2C1` [Example 4-49], the IC50 at PKC α (setting [1]) was 2710 nM; on PKC β II (setting [2]), 33 nM. The “Ratio α/β” value on PKC β II turned out to be 82.
In the same order, the values of `CCN(CC)C[C@@H]1CCc2c(C3=C(Nc4ccccc4)C(=O)NC3=O)c3ccccc3n2C1` [Example 4-50] are 494 nM, 6 nM and 82.
In the case of `CCN(C)CC1CCc2c(C3=C(Nc4ccccc4)C(=O)NC3=O)c3ccccc3n2C1` (stereo not drawn) [Example 4-51], half-maximal inhibition on PKC α (IC50) required 708 nM. On PKC β II, half-maximal inhibition (IC50) required 7 nM and the “Ratio α/β” value turned out to be 101.
Turning to `O=C1NC(=O)C(c2c3n(c4ccccc24)C[C@@H](CN2CCOCC2)CC3)=C1Nc1ccccc1` [Example 4-52], the IC50 at PKC α (setting [1]) is 3880 nM; at PKC β II (setting [2]) it was 57 nM. For the same molecule, the “Ratio α/β” value at PKC β II is 68.
Taken in the same sequence, the figures for `O=C1NC(=O)C(c2c3n(c4ccccc24)C[C@@H](CO)C=C3)=C1Nc1ccccc1` [Example 4-53] were 1480 nM, 14 nM and 106.
For `CCN(CC)C[C@H]1CCc2c(C3=C(Nc4ccccc4)C(=O)NC3=O)c3ccccc3n2C1` [Example 4-54], the IC50 is 569 nM on PKC α (setting [1]) and 10 nM on PKC β II (setting [2]). Moreover, the “Ratio α/β” value on PKC β II is listed as 57.
In the case of `CN(C)C[C@H]1CCc2c(C3=C(Nc4ccccc4)C(=O)NC3=O)c3ccccc3n2C1` [Example 4-55], the IC50 worked out at 252 nM at PKC α (setting [1]) and 4 nM on PKC β II (setting [3]). Moreover, on PKC β II, the “Ratio α/β” value is given as 63.
For the molecule `COC[C@H]1Cc2c(C3=C(Nc4ccccc4)C(=O)NC3=O)c3ccccc3n2C1` [Example 4-56], the midpoint of inhibition at PKC α, the IC50, lay at 5220 nM. Besides, at PKC β II, the IC50 amounted to 40 nM and the “Ratio α/β” value is given as 131.
As for `COC[C@H]1Cc2c(C3=C(Nc4ccc(F)cc4)C(=O)NC3=O)c3ccccc3n2C1` [Example 4-57], the IC50 turned out to be 6460 nM at PKC α (setting [1]) and 84 nM at PKC β II (setting [2]). In addition, the “Ratio α/β” value at PKC β II was determined as 77.
As to `O=C1NC(=O)C(c2c3n(c4ccccc24)C[C@H](CO)C3)=C1Nc1ccccc1` [Example 4-58], the IC50 amounted to 1020 nM on PKC α (setting [1]) and 14 nM on PKC β II (setting [3]). Moreover, the “Ratio α/β” value on PKC β II was 73.
With `O=C1NC(=O)C(c2c3n(c4ccccc24)C[C@H](CN2CCOCC2)C3)=C1Nc1ccccc1` [Example 4-59], the IC50 at PKC α (setting [1]) was 4990 nM; on PKC β II (setting [2]), 46 nM. The “Ratio α/β” value on PKC β II worked out at 109.
Take `O=C1NC(=O)C(c2c3n(c4ccccc24)C[C@@H](CO)C3)=C1Nc1ccccc1` [Example 4-60]: the figures for the IC50 on PKC α (setting [1]) and on PKC β II (setting [3]) were 458 nM and 4 nM, respectively. Also, on PKC β II, the “Ratio α/β” value is given as 115.
Consider `CCN(C)C[C@H]1Cc2c(C3=C(Nc4ccccc4)C(=O)NC3=O)c3ccccc3n2C1` [Example 4-61], for which the IC50 on PKC α (setting [1]) was found to be 481 nM; on PKC β II (setting [3]), 5 nM. Besides, the “Ratio α/β” value at PKC β II is 96.
`COc1ccc(NC2=C(c3c4n(c5ccccc35)C[C@@H](CO)C4)C(=O)NC2=O)cc1` [Example 4-62]: the IC50 on PKC α (setting [1]) was 794 nM; on PKC β II (setting [2]), 16 nM. Further, the “Ratio α/β” value at PKC β II amounted to 50.
`CCN(C)C[C@H]1Cc2c(C3=C(Nc4ccc(OC)cc4)C(=O)NC3=O)c3ccccc3n2C1` [Example 4-63]: the IC50 is 1100 nM on PKC α (setting [1]) and 16 nM on PKC β II (setting [2]). For the same molecule, the “Ratio α/β” value at PKC β II is 69.
For the molecule `CN(C)C[C@H]1Cc2c(C3=C(Nc4ccccc4)C(=O)NC3=O)c3ccccc3n2C1` [Example 4-64], the IC50 on PKC α (setting [1]) was 148 nM; on PKC β II (setting [3]), 4 nM. The “Ratio α/β” value at PKC β II is recorded as 37.
With `CCN(CC)C[C@H]1Cc2c(C3=C(Nc4ccccc4)C(=O)NC3=O)c3ccccc3n2C1` [Example 4-65], the IC50 at PKC α (setting [1]) stood at 1950 nM; at PKC β II (setting [3]), 32 nM. Moreover, the “Ratio α/β” value on PKC β II is given as 61.
In the case of `CCN(C)C[C@H]1Cc2c(C3=C(Nc4ccc(F)cc4)C(=O)NC3=O)c3ccccc3n2C1` [Example 4-66], the IC50 on PKC α (setting [1]) stood at 632 nM; at PKC β II (setting [2]), 12 nM. Also, on PKC β II, the “Ratio α/β” value amounted to 53.
For `O=C1NC(=O)C(c2c3n(c4ccccc24)C[C@@H](CN2CCCC2)C3)=C1Nc1ccccc1` [Example 4-67], the IC50 amounted to 542 nM on PKC α (setting [1]) and 8 nM on PKC β II (setting [3]). Besides, on PKC β II, the “Ratio α/β” value was 68.
As to `O=C1NC(=O)C(c2c3n(c4ccccc24)C[C@@H](CO)C3)=C1Nc1ccc(F)cc1` [Example 4-68], the IC50 at PKC α (setting [1]) was 341 nM; at PKC β II (setting [2]), 4 nM. In addition, at PKC β II, the “Ratio α/β” value turned out to be 85.
In the same order, the values of `CN(C)C[C@H]1Cc2c(C3=C(Nc4ccc(F)cc4)C(=O)NC3=O)c3ccccc3n2C1` [Example 4-69] are 455 nM, 6 nM and 76.
In the same order, the values of `CNC[C@H]1Cc2c(C3=C(Nc4ccccc4)C(=O)NC3=O)c3ccccc3n2C1` [Example 4-70] are 159 nM, 1 nM and 159.
In the same order, the values of `O=C1NC(=O)C(c2c3n(c4ccccc24)C[C@@H](CN2CCOCC2)C3)=C1Nc1ccccc1` [Example 4-71] are 4450 nM, 41 nM and 108.
